Literature values as cited in patent US6541263B2, “Determination of corticosteroids in human plasma using micromass LC/MS/MS” (Euro-Celtique, S.A. Luxembourg, priority 2001, dated 2003).

Tested on: eosinophils
Settings: IL-5-mediated survival

## C[C@]12CCC(=O)C=C1CC[C@@H]1[C@@H]2[C@@H](O)C[C@@]2(C)[C@H]1CC[C@]2(O)C(=O)CO [hydrocortisone]
  inhibition of IL-5-mediated eosinophil survival: dose-dependent inhibition
